Source: PMC10584170, “Machine learning-based phenotypic imaging to characterise the targetable biology of Plasmodium falciparum male gametocytes for the development of transmission-blocking antimalarials” (PLOS Pathogens, 2023)
Read-outs that look alike come from different tables or passages of the source.

Legend:
[1] = tested on: P. falciparum male gametocytes; test: P. falciparum Dual Gamete Formation Assay (PfDGFA), male readout (exflagellation); type: cell-based, Plasmodium falciparum NF54; conditions: for Activity: hit = >50% inhibition in male or female readout in at least 3 replicates, 0 = no class assigned
Outline: (§1)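 Two sex-specific readouts come from one well: male exflagellation centres recorded by brightfield video right after activation, and female gametes scored by Cy3-anti-Pfs25 fluorescence after 24 h at 28°C.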

[2] = tested on: P. falciparum female gametocytes; test: P. falciparum Dual Gamete Formation Assay (PfDGFA), female readout (Pfs25-positive female gametes); type: cell-based, Plasmodium falciparum NF54
Outline: as §1

[3] = PfDGFA at 2µM, 24h preincubation with gametocytes, average of replicates
[4] = PfDGFA at 2µM, 24h preincubation with gametocytes, replicate R1
[5] = PfDGFA at 2µM, 24h preincubation with gametocytes, replicate R3
[6] = PfDGFA at 2µM, 24h preincubation with gametocytes, replicate R4
[7] = 2µM, 24h preincubation with gametocytes prior to induction of gametogenesis, average of replicates
[8] = 2µM, 24h preincubation with gametocytes prior to induction of gametogenesis, replicate R1
[9] = 2µM, 24h preincubation with gametocytes prior to induction of gametogenesis, replicate R3
[10] = 2µM, 24h preincubation with gametocytes prior to induction of gametogenesis, replicate R4
[11] = 2µM, 24h preincubation, hits selected on >50% inhibition in the male readout across replicates
[12] = PfDGFA at 2µM, 24h preincubation
[13] = 2µM, 24h preincubation, hits selected on >50% inhibition in the female readout across replicates
[14] = PfDGFA at 2µM, 24h preincubation with gametocytes prior to induction of gametogenesis, replicate R1
[15] = PfDGFA at 2µM, 24h preincubation with gametocytes prior to induction of gametogenesis, replicate R3
[16] = PfDGFA at 2µM, 24h preincubation with gametocytes prior to induction of gametogenesis, replicate R4
[17] = PfDGFA at 2µM, 24h preincubation, average of replicates
[18] = 2µM, 24h preincubation, number of replicates with >50% inhibition in the male readout
[19] = 2µM, 24h preincubation, number of replicates with >50% inhibition in the female readout

Compound | Average inhibition male (%) [1, 7] | % inhibition male (individual replicates) R1 [1, 8] | % inhibition male (individual replicates) R3 [1, 9] | % inhibition male (individual replicates) R4 [1, 10] | Average inhibition female (%) [2, 7] | % inhibition female (individual replicates) R1 [2, 8] | % inhibition female (individual replicates) R3 [2, 9] | % inhibition female (individual replicates) R4 [2, 10] | % inhibition male (individual replicates) R1 [1, 14] | % inhibition male (individual replicates) R4 [1, 16] | Average inhibition male (%) [1, 17] | % inhibition female (individual replicates) R1 [2, 14] | % inhibition female (individual replicates) R3 [2, 15] | % inhibition female (individual replicates) R4 [2, 16] | Average inhibition female (%) [2, 17] | other results
CN1CCC(NCc2cccc(-c3nn(C)c4nc(NC5CCCC5)ncc34)c2)CC1 [TCMDC-134840] |  |  |  |  |  |  |  |  |  |  |  |  |  |  |  | Average inhibition male (%) [1, 3]: 82.7%; % inhibition male (individual replicates) R1 [1, 4]: 90.3%; % inhibition male (individual replicates) R3 [1, 5]: 59.9%; % inhibition male (individual replicates) R4 [1, 6]: 92.2%; HitlevelM ([1]; number of replicates with >50% inhibition in the male readout, 2µM): 4; Average inhibition female (%) [2, 3]: 22.7%; % inhibition female (individual replicates) R1 [2, 4]: 22.9%; % inhibition female (individual replicates) R3 [2, 5]: 25.6%; % inhibition female (individual replicates) R4 [2, 6]: 7.8%; HitlevelF ([2]; number of replicates with >50% inhibition in the female readout, 2µM): 0
COc1ccc(NC(=O)[C@H](CC(C)C)Nc2cc(C)nc(NCc3ccccc3C)n2)cc1.O=C(O)C(F)(F)F [TCMDC-134909] | 9.0% | 15.3% | -6.1% | 18.9% | 7.3% | 5.6% | -14.2% | 28.8% |  |  |  |  |  |  |  | HitlevelM [1, 11]: 0; Activity [1, 12]: 0; HitlevelF [2, 13]: 0
NS(=O)(=O)c1cccc(Nc2nc(N[C@@H]3CCNC3)nc3cc[nH]c(=O)c23)c1.O=C(O)C(F)(F)F [TCMDC-135057] | -3.6% | -10.0% |  | -11.4% | 3.8% | 4.1% | 1.9% | 9.1% |  |  |  |  |  |  |  | HitlevelM [1, 11]: 0; Activity [1, 12]: 0; HitlevelF [2, 13]: 0
COc1ccccc1CNc1ccnc(N2CC(Oc3ccc(F)cc3)C2)n1 [TCMDC-135118] |  |  |  |  |  |  |  |  | 9.0% | 42.2% | 10.3% | 24.5% | -33.1% | 4.4% | 3.5% | % inhibition male (individual replicates) R3 [1, 15]: -43.0%
CN1CCN(CC2(Nc3nccc(NCCc4cn(C)c5ccccc45)n3)CCCCC2)CC1 [TCMDC-135122] | 31.6% | 31.6% | 5.8% | 52.9% | 24.1% | 17.1% | 12.9% | 28.9% |  |  |  |  |  |  |  | HitlevelM [1, 18]: 1; HitlevelF [2, 19]: 0
C#C[C@H]1O[C@@H](n2cnc3c(Nc4cc(Br)cc(C(F)(F)F)c4)ncnc32)[C@H](O)[C@@H]1O [TCMDC-135185] |  |  |  |  |  |  |  |  |  |  |  |  |  |  |  | Selectivity Ratio M ([1]; HepG2 Tox50 versus male IC50): 328.28; inhibition at 2 µM ([1]; Plasmodium falciparum, 2µM, 24h preincubation with gametocytes, average of replicates, read-out: Average inhibition male (%)): 97%; inhibition at 2 µM ([1]; Plasmodium falciparum, 2µM, 24h preincubation with gametocytes, replicate R1, read-out: % inhibition male (individual replicates) R1): 97.5%; inhibition at 2 µM ([1]; Plasmodium falciparum, 2µM, 24h preincubation with gametocytes, replicate R2, read-out: % inhibition male (individual replicates) R2): 96.8%; inhibition at 2 µM ([1]; Plasmodium falciparum, 2µM, 24h preincubation with gametocytes, replicate R3, read-out: % inhibition male (individual replicates) R3): 98%; inhibition at 2 µM ([1]; Plasmodium falciparum, 2µM, 24h preincubation with gametocytes, replicate R4, read-out: % inhibition male (individual replicates) R4): 95.6%; IC50 ([1]; Plasmodium falciparum, PfDGFA, 24 h incubation with gametocytes before induction, exflagellation readout, read-out: Male IC50): 300 nM; Selectivity ratio F ([2]; HepG2 Tox50 versus female IC50): 10; inhibition at 2 µM ([2]; Plasmodium falciparum, 2µM, 24h preincubation with gametocytes, average of replicates, read-out: Average inhibition female (%)): 3.7%; inhibition at 2 µM ([2]; Plasmodium falciparum, 2µM, 24h preincubation with gametocytes, replicate R1, read-out: % inhibition female (individual replicates) R1): 8.3%; inhibition at 2 µM ([2]; Plasmodium falciparum, 2µM, 24h preincubation with gametocytes, replicate R2, read-out: % inhibition female (individual replicates) R2): -2.8%; inhibition at 2 µM ([2]; Plasmodium falciparum, 2µM, 24h preincubation with gametocytes, replicate R3, read-out: % inhibition female (individual replicates) R3): -10.2%; inhibition at 2 µM ([2]; Plasmodium falciparum, 2µM, 24h preincubation with gametocytes, replicate R4, read-out: % inhibition female (individual replicates) R4): 19.5%; IC50 ([2]; Plasmodium falciparum, PfDGFA, 24 h incubation with gametocytes before induction, female gamete readout, read-out: Female IC50): > 10000 nM
O=C(C1CCCC1)N1CCOC(CCN2CCC(c3ccccc3)CC2)(c2ccc(Cl)c(Cl)c2)C1 (centres unmarked) [TCMDC-135327] |  |  |  |  |  |  |  |  | 1.8% | 15.6% | 8.1% | 8.8% | -20.5% | 17.1% | -1.8% | % inhibition male (individual replicates) R3 [1, 15]: 11.7%
O=C(Nc1ccc(C(=O)OCC2CCCCC2)cc1)N[C@@H](Cc1ccc(O)cc1)C(=O)NC1CCN(Cc2ccc(O)cc2)C1.O=C(O)C(F)(F)F (some centres unmarked) [TCMDC-135357] | -19.1% | -13.6% | -12.1% | -40.5% | 4.9% | 8.9% | 10.5% | 8.3% |  |  |  |  |  |  |  | HitlevelM [1, 11]: 0; Activity [1, 12]: 0; HitlevelF [2, 13]: 0
C=C[C@]1(C)C[C@@H](OC(=O)CNC[C@@H](O)CN2C[C@H](c3ccnc4ccc(OC)nc34)OC2=O)[C@]2(C)[C@H](C)CC[C@]3(CCC(=O)[C@H]32)[C@@H](C)[C@@H]1O [TCMDC-135366] |  |  |  |  |  |  |  |  | -4.9% | 9.5% | -1.6% | -19.6% | -21.7% | -0.7% | -7.1% | % inhibition male (individual replicates) R3 [1, 15]: -9.1%
COc1cc(NC(=O)c2sc(-c3ccc(Cl)cc3)cc2NC(=O)c2cccnc2)ccc1OCCN1CCCC1 [TCMDC-135397] | 57.2% | 45.5% | 40.3% | 71.6% | 46.9% | 19.3% | 58.0% | 48.0% |  |  |  |  |  |  |  | HitlevelM [1, 18]: 2; HitlevelF [2, 19]: 2
CCCCN(Cc1cc(Cl)c(OC)c(OC)c1)c1ccc(C(O)(C(F)(F)F)C(F)(F)F)cc1.O=C(O)C(F)(F)F [TCMDC-135446] |  |  |  |  |  |  |  |  | -14.8% | -29.5% | -22.3% | 1.9% | -6.9% | 1.5% | -3.4% | 
NCCCNc1nccc(N2CCc3ncnc(Nc4ccc(OCc5cccc(F)c5)c(Cl)c4)c3C2)n1 [TCMDC-135456] | -16.9% | -14.5% | -30.0% | -11.8% | 13.8% | 10.7% | -9.6% | 40.7% |  |  |  |  |  |  |  | HitlevelM [1, 11]: 0; Activity [1, 12]: 0; HitlevelF [2, 13]: 0
COc1cc2ccccc2cc1OCCCN1CCN(CC(c2ccc(F)cc2)N2CCN(C(C)C)CC2)CC1.Cl (centres unmarked) [TCMDC-135496] | 6.1% | 10.5% | -16.9% | 18.2% | 22.9% | 29.5% | 8.0% | 29.0% |  |  |  |  |  |  |  | HitlevelM [1, 18]: 0; HitlevelF [2, 19]: 0
CC(C)N1CCN(C(CN2CCN(CCCOc3ccccc3-c3ccccc3)CC2)c2ccc(F)cc2)CC1.Cl (centres unmarked) [TCMDC-135499] | 13.5% | 15.7% | 14.1% | 9.5% | 28.0% | 23.1% | 16.4% | 32.9% |  |  |  |  |  |  |  | HitlevelM [1, 18]: 0; HitlevelF [2, 19]: 0
CC(=O)Nc1cccc(Nc2nccc(-c3c(-c4cccc(NC(=O)c5c(F)cccc5F)c4)nn4ncccc34)n2)c1 [TCMDC-135548] |  |  |  |  |  |  |  |  | 29.2% | -3.8% | 8.8% | -7.4% | -25.4% | -8.4% | -11.7% | % inhibition male (individual replicates) R3 [1, 15]: 23.6%
